Laboratory results reported in patent US11311522B1 (Cavion, Inc., priority 2018, dated 2022).
“And” between values parts separate entries of the source, which are not always exact repeats. Equal entries are not always repeated.

How the values were obtained:
[1] = tested on: patients with essential tremor; assay: T-CALM: TETRAS total score; assay type: in vivo, human
Protocol: The Total TETRAS score was defined as the sum of the TETRAS performance subscale total score and the TETRAS ADL subscale score. TETRAS TOTAL score combines both patient reported outcome and objective measurement of tremor amplitude in a single score. Analyses of the TETRAS-ADL was conducted using the same type of ANCOVA model as described for the TETRAS-PS, using two-sided tests at the alpha=0.05 level of significance (FIG. 3 and Table 3).

[2] = doses up to 6000 μg/plate
[3] = Exploratory embryofetal development study in rabbits
[4] = tested on: patients with essential tremor; assay: T-CALM: adverse events, discontinuations, ECG; assay type: in vivo, human
Protocol: T-CALM employed the following dose titration scheme: Week 1 at 4 mg BID (8 mg/day), Week 2 at 8 mg BID (16 mg/day) and Weeks 3 & 4 at 10 mg BID (20 mg/day). […] Adverse Events were coded using MedDRA V20.0. Only treatment emergent adverse events with an onset date and time after the initiation of study drug until 30 days after discontinuation of drug were reported. For subjects who experience the same coded event more than once, a single event was presented. Adverse events were attributed to a study week based on the onset date, i.e. events that started on or after Visit 1 and prior to Visit 2 were classified as Study Week 1.
Electrocardiogram results were calculated as the average of the triplicate records at each time point. Baseline was defined as the mean of the triplicate values obtained pre-dose at Day 1. If this value was not available, the mean of the triplicate records obtained at screening were used.
Adverse events are characterized by maximum severity, drug-related adverse events, serious adverse events and adverse events leading to discontinuation of study.
Safety procedures involved collection of all TEAEs (treatment-emergent adverse events) coded into the Medical Dictionary for Regulatory Activities (MedDRA) version 20. Adverse events were classified by maximum severity, drug-related adverse events, serious adverse events, and adverse events leading to patient discontinuation.

[5] = Dutch Belted rabbit, oral gavage GD 7 through GD 20

CC(C)c1ccc(CC(=O)N[C@H](C)c2ccc(OCC(F)(F)F)cn2)cc1 [CX-8998]
Change from baseline in TETRAS-Total, LS mean ([1]; Day 15 (8 mg BID)): −7.5±1.42 and −7.5 | Change from baseline in TETRAS-Total, LS mean ([1]; Day 28 (10 mg BID)): −9.0±1.66 and −9 | >5 to 10 point worsening ([1]; TETRAS Total, Day 15): 0 n (%) | >10 point worsening ([1]; TETRAS Total, Day 15): 0 n (%) | 0 change ([1]; TETRAS Total, Day 28): 0 n (%) | >5 to 10 point worsening ([1]; TETRAS Total, Day 28): 0 n (%) | >10 point worsening ([1]; TETRAS Total, Day 28): 0 n (%) | Ames assay result [2]: negative | Developmental toxicity ([3]; 30, 100, or 300 mg/kg/day): No evidence of developmental toxicity | dose at which maternal toxicity was excessive [3, 5]: 1000 mg/kg/day | dose at which maternal toxicity was observed [3, 5]: ≥30 mg/kg/day and was excessive at | Doses with maternal toxicity ([3]; rabbit, in vivo): ≥ 30 mg/kg/day | Discontinuation due to Nervous System Disorders, subjects n (%) ([4]; N = 48): 4 (8%) | Discontinuation due to Psychiatric Disorders, subjects n (%) ([4]; N = 48): 4 (8%) | Dosage reduced Due to adverse event, subjects n (%) ([4]; N = 48): 3 (6%) | Dosage reduced during study, subjects n (%) ([4]; N = 48): 4 (8%) | Subjects with at least 1 event leading to discontinuation, n (%) ([4]; N = 48): 8 (17%) | Dosage reduced Due to other reasons, subjects n (%) ([4]; N = 48, subject had inadequate drug supply at Visit 4): 1 (2%)^3 | TEAE Abnormal dreams, subjects n (%) ([4]; Safety Analysis Set, n = 48): 2 (4%) | TEAE Disturbance in attention, subjects n (%) ([4]; Safety Analysis Set, n = 48): 2 (4%) | TEAE Dizziness, subjects n (%) ([4]; Safety Analysis Set, n = 48): 10 (21%) | TEAE Dry mouth, subjects n (%) ([4]; Safety Analysis Set, n = 48): 2 (4%) | TEAE Dysgeusia, subjects n (%) ([4]; Safety Analysis Set, n = 48): 2 (4%) | TEAE Ear and Labyrinth Disorders (system organ class), subjects n (%) ([4]; Safety Analysis Set, n = 48): 2 (4%) | TEAE Euphoric mood, subjects n (%) ([4]; Safety Analysis Set, n = 48): 3 (6%) | TEAE Gastrointestinal Disorders (system organ class), subjects n (%) ([4]; Safety Analysis Set, n = 48): 9 (19%) | TEAE Hallucination, subjects n (%) ([4]; Safety Analysis Set, n = 48): 2 (4%) | TEAE Headache, subjects n (%) ([4]; Safety Analysis Set, n = 48): 4 (8%) | TEAE Hypesthesia, subjects n (%) ([4]; Safety Analysis Set, n = 48): 0 | TEAE Infections and Infestations (system organ class), subjects n (%) ([4]; Safety Analysis Set, n = 48): 4 (8%) | TEAE Insomnia, subjects n (%) ([4]; Safety Analysis Set, n = 48): 3 (6%) | TEAE Nausea, subjects n (%) ([4]; Safety Analysis Set, n = 48): 1 (2%) | TEAE Nervous System Disorders (system organ class), subjects n (%) ([4]; Safety Analysis Set, n = 48): 20 (42%) | TEAE Paraesthesia, subjects n (%) ([4]; Safety Analysis Set, n = 48): 2 (4%) | TEAE Somnolence, subjects n (%) ([4]; Safety Analysis Set, n = 48): 1 (2%) | TEAE Tinnitus, subjects n (%) ([4]; Safety Analysis Set, n = 48): 2 (4%) | TEAE Urinary Tract Infection, subjects n (%) ([4]; Safety Analysis Set, n = 48): 2 (4%) | TEAE Vomiting, subjects n (%) ([4]; Safety Analysis Set, n = 48): 0 | Subjects with at least 1 treatment-emergent adverse event, n (%) ([4]; Safety Analysis Set, n = 48, titrated up to 10 mg BID, 4 weeks): 28 (58%) | Adverse Event (MedDRA Preferred Term) leading to dosage reduction ([4]; Subject 26-001, Study Day 25, from 10 mg BID to 8 mg BID, Completed study): Anxiety | Adverse Event (MedDRA Preferred Term) leading to dosage reduction ([4]; Subject 31-023, Study Day 8, from 8 mg BID to 4 mg BID, Withdrawn (Day 8), term wraps over r24-r26: Electrocardiogram T-wave abnormal): Electrocardio- | Adverse Event (MedDRA Preferred Term) leading to dosage reduction ([4]; Subject 33-004, Study Day 8, from 4 mg BID to 2 mg BID, Withdrawn (Day 45) Lost to follow-up): Headache | Abnormal dreams ([4]; TEAE, n = 48): 2 (4%) n (%) | Disturbance in attention ([4]; TEAE, n = 48): 2 (4%) n (%) | Dizziness ([4]; TEAE, n = 48): 10 (21%) n (%) | Dry mouth ([4]; TEAE, n = 48): 2 (4%) n (%) | Dysgeusia ([4]; TEAE, n = 48): 2 (4%) n (%) | Ear and Labyrinth Disorders ([4]; TEAE, n = 48): 2 (4%) n (%) | Euphoric mood ([4]; TEAE, n = 48): 3 (6%) n (%) | Gastrointestinal Disorders ([4]; TEAE, n = 48): 9 (19%) n (%) | Hallucination ([4]; TEAE, n = 48): 2 (4%) n (%) | Headache ([4]; TEAE, n = 48): 4 (8%) n (%) | Hypesthesia ([4]; TEAE, n = 48): 0 n (%) | Infections and Infestations ([4]; TEAE, n = 48): 4 (8%) n (%) | Insomnia ([4]; TEAE, n = 48): 3 (6%) n (%) | Nausea ([4]; TEAE, n = 48): 1 (2%) n (%) | Nervous System Disorders ([4]; TEAE, n = 48): 20 (42%) n (%) | Paraesthesia ([4]; TEAE, n = 48): 2 (4%) n (%) | Somnolence ([4]; TEAE, n = 48): 1 (2%) n (%) | Tinnitus ([4]; TEAE, n = 48): 2 (4%) n (%) | Urinary Tract Infection ([4]; TEAE, n = 48): 2 (4%) n (%) | Vomiting ([4]; TEAE, n = 48): 0 n (%) | Discontinuation due to adverse events ([4]; in vivo): 8 (17%) n (%) | Dosage reduction due to TEAEs ([4]; in vivo): 6% | Electrocardiogram outlier analysis ([4]; in vivo): no CVS safety signals
